# Experimental data: patent US7335672B2, “Vanilloid receptor ligands and their use in treatments” (Amgen Inc., priority 2004, dated 2008)
row,Structure (SMILES),melting point [°C]
1,CC(=O)Nc1nc2c(Oc3cc(-c4ccc(C(F)(F)F)cc4)nc(-c4cccnc4)n3)cccc2s1 [Example 9],268 to 270
2,"CC(=O)Nc1nc2c(Oc3cc(-c4ccc(C(F)(F)F)cc4)nc(N4CCN(C(=O)OC(C)(C)C)CC4)n3)cccc2s1 [Example 34, tert-Butyl 4-(4-(2-acetamidobenzo[d]thiazol-4-yloxy)-6-(4-(trifluoromethyl)phenyl)pyrimidin-2-yl)piperazine-1-carboxylate]",211
3,CC(=O)Nc1nc2c(Oc3cc(-c4ccc(C(F)(F)F)cc4)nc(NCc4cccnc4)n3)cccc2s1 [Example 53],240
4,COCC(C)Nc1nc(Oc2cccc3[nH]c(=O)c(N)nc23)cc(-c2ccc(C(F)(F)F)cc2)n1 (centres unmarked) [Example 109],241
5,COC[C@H](C)Nc1nc(Oc2cccc3[nH]c(=O)c(N)nc23)cc(-c2ccc(C(F)(F)F)cc2)n1 [Example 114],243
6,"CS(=O)(=O)Nc1cccc(CNc2nc(Oc3cccc4[nH]c(=O)c(N)nc34)cc(-c3ccc(C(F)(F)F)cc3)n2)c1 [Example 116, N-{3-[({4-[(3-amino-2-oxo-1,2-dihydroquinoxalin-5-yl)oxy]-6-[4-(trifluoromethyl)phenyl]pyrimidin-2-yl}amino)methyl]phenyl}methanesulfonamide]",> 300
7,"CS(=O)(=O)N1CCN(c2nc(Oc3cccc4[nH]c(=O)c(N)nc34)cc(-c3ccc(C(F)(F)F)cc3)n2)CC1 [Example 117, 3-amino-5-({2-[4-(methylsulfonyl)piperazin-1-yl]-6-[4-(trifluoromethyl)phenyl]pyrimidin-4-yl}oxy)quinoxalin-2(1H)-one]",> 300
8,"CC(C)CN1CCCC[C@H]1CNc1nc(Oc2cccc3[nH]c(=O)c(N)nc23)cc(-c2ccc(C(F)(F)F)cc2)n1 [Example 120, (S)-3-Amino-5-(2-((1-isobutylpiperidin-2-yl)methylamino)-6-(4-(trifluoromethyl)phenyl)pyrimidin-4-yloxy)quinoxalin-2(1H)-one]",228

# Continued, values first:
row,melting point [°C],Structure (SMILES)
1,198,CC(=O)Nc1nc2c(Oc3cc(-c4ccc(C(F)(F)F)cc4)nc(N4CCCC(O)C4)n3)cccc2s1 (centres unmarked) [Example 39]
2,277 to 278,"CC(=O)Nc1nc2c(Oc3cc(-c4ccc(C(F)(F)F)cc4)nc(N4CCC(C(=O)O)CC4)n3)cccc2s1 [Example 42, 1-{4-{[2-(acetylamino)-1,3-benzothiazol-4-yl]oxy}-6-[4-(trifluoromethyl)phenyl]pyrimidin-2-yl}piperidine-4-carboxylic acid]"
3,128,CC(=O)Nc1nc2c(Oc3cc(-c4ccc(C(F)(F)F)cc4)nc(NCC4CCCN(C(=O)OC(C)(C)C)C4)n3)cccc2s1 (centres unmarked) [Example 70]
4,132,"CC(=O)Nc1nc2c(Oc3cc(-c4ccc(C(F)(F)F)cc4)nc(NC[C@@H]4CCCN4C(=O)OC(C)(C)C)n3)cccc2s1 [Example 71, tert-butyl (2S)-2-[({4-{[2-(acetylamino)-1,3-benzothiazol-4-yl]oxy}-6-[4-(trifluoromethyl)phenyl]pyrimidin-2-yl}amino)methyl]pyrrolidine-1-carboxylate]"
5,289,CC(Nc1nc(Oc2cccc3[nH]c(=O)c(N)nc23)cc(-c2ccc(C(F)(F)F)cc2)n1)c1ccccn1 (centres unmarked) [Example 113]
6,229,"CC(C)CN1CCCC[C@@H]1CNc1nc(Oc2cccc3[nH]c(=O)c(N)nc23)cc(-c2ccc(C(F)(F)F)cc2)n1 [Example 121, (R)-3-Amino-5-(2-((1-isobutylpiperidin-2-yl)methylamino)-6-(4-(trifluoromethyl)phenyl)pyrimidin-4-yloxy)quinoxalin-2(1H)-one]"
